Reference: patent publication US6642392B1 (priority 1997, dated 2003)

What was measured:
Format in all cases: in vivo
Pyricularia oryzae = conditions: rice blast; 100 = 100% disease control, 0 = no control; unmarked entries (standard test concentration)
Phytophthora infestans = conditions: tomato late blight; 100 = 100% disease control, 0 = no control; unmarked entries (standard test concentration)
Puccinia recondita = test: Test B: wheat leaf rust, preventive spray on wheat seedlings; conditions: wheat leaf rust; 100 = 100% disease control, 0 = no control; unmarked entries (standard test concentration)
Procedure, shortened: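 Wheat seedlings were sprayed to run-off with compound (3% acetone, 250 ppm Trem 014), then inoculated with P. recondita spores the next day. They were held 24 h saturated at 20 °C, then 6 days at 20 °C. Ratings are 0–100% disease control versus controls.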

Botrytis cinerea = test: Test E: gray mold, preventive spray on cucumber seedlings; conditions: gray mold on cucumber; 100 = 100% disease control, 0 = no control; unmarked entries (standard test concentration)
Procedure, shortened: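 Compounds in 3% acetone were suspended with 250 ppm Trem 014 surfactant and sprayed to run-off on cucumber seedlings. B. cinerea spores were inoculated next day, then 48 h saturated humidity at 20° C and 5 days at 20° C. Disease control rated 0–100% versus controls.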

[1] = system: Eiysiphe graminis f. sp. tritici; test: Test A: wheat powdery mildew, preventive spray on wheat seedlings; conditions: wheat powdery mildew; 100 = 100% disease control, 0 = no control relative to controls; unmarked entries (standard test concentration)
Procedure, shortened: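 Compounds (3% acetone, 250 ppm Trem 014) sprayed to run-off on wheat seedlings, inoculated next day with spore dust. Incubated 7 days at 20° C before disease rating, 0–100% control relative to untreated controls.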

C[C@H](COc1ccccc1F)NC(=O)C(C#N)C(C)(C)C (single isomer, unassigned) [2c]
Test C disease control rating (Pyricularia oryzae): 100%
Test D disease control rating (Phytophthora infestans): 24%
Test B disease control rating (Puccinia recondita): 0%
Test E disease control rating (Botrytis cinerea): 0%
Test A disease control rating [1]: 86%

CC(COc1cccc(F)c1)NC(=O)C(C#N)C(C)(C)C (single isomer, unassigned) [3b]
Test C disease control rating (Pyricularia oryzae): 86%
Test D disease control rating (Phytophthora infestans): 32%
Test B disease control rating (Puccinia recondita): 0%
Test E disease control rating (Botrytis cinerea): 0%
Test A disease control rating [1]: 0%

CC(COc1cccc(F)c1)NC(=O)C(C#N)C(C)(C)C (single isomer, unassigned) [3c]
Test C disease control rating (Pyricularia oryzae): 100%
Test D disease control rating (Phytophthora infestans): 4%
Test B disease control rating (Puccinia recondita): 0%
Test E disease control rating (Botrytis cinerea): 0%
Test A disease control rating [1]: 38%

C[C@H](COc1cccc(F)c1)NC(=O)C(C#N)C(C)(C)C (single isomer, unassigned) [3d]
Test C disease control rating (Pyricularia oryzae): 100%
Test D disease control rating (Phytophthora infestans): 99%
Test B disease control rating (Puccinia recondita): 0%
Test E disease control rating (Botrytis cinerea): 0%
Test A disease control rating [1]: 92%

C[C@H](COc1cccc(F)c1)NC(=O)C(C#N)C(C)(C)C (single isomer, unassigned) [3e]
Test C disease control rating (Pyricularia oryzae): 100%
Test D disease control rating (Phytophthora infestans): 68%
Test B disease control rating (Puccinia recondita): 0%
Test E disease control rating (Botrytis cinerea): 0%
Test A disease control rating [1]: 86%

CC(COc1ccc(F)cc1)NC(=O)C(C#N)C(C)(C)C (single isomer, unassigned) [4a]
Test C disease control rating (Pyricularia oryzae): 99%
Test D disease control rating (Phytophthora infestans): 66%
Test B disease control rating (Puccinia recondita): 67%
Test E disease control rating (Botrytis cinerea): 0%
Test A disease control rating [1]: 0%

CC(COc1ccc(F)cc1)NC(=O)C(C#N)C(C)(C)C (single isomer, unassigned) [4b]
Test C disease control rating (Pyricularia oryzae): 99%
Test D disease control rating (Phytophthora infestans): 89%
Test B disease control rating (Puccinia recondita): 0%
Test E disease control rating (Botrytis cinerea): 82%
Test A disease control rating [1]: 86%

CC(COc1cccc(Cl)c1)NC(=O)C(C#N)C(C)(C)C (single isomer, unassigned) [6a]
Test C disease control rating (Pyricularia oryzae): 74%
Test D disease control rating (Phytophthora infestans): 0%
Test B disease control rating (Puccinia recondita): 0%
Test E disease control rating (Botrytis cinerea): 0%
Test A disease control rating [1]: 0%

CC(COc1cccc(Cl)c1)NC(=O)C(C#N)C(C)(C)C (single isomer, unassigned) [6c]
Test C disease control rating (Pyricularia oryzae): 97%
Test D disease control rating (Phytophthora infestans): 9%
Test B disease control rating (Puccinia recondita): 0%
Test E disease control rating (Botrytis cinerea): 0%
Test A disease control rating [1]: 0%

C[C@H](COc1cccc(Cl)c1)NC(=O)C(C#N)C(C)(C)C (single isomer, unassigned) [6d]
Test C disease control rating (Pyricularia oryzae): 97%
Test D disease control rating (Phytophthora infestans): 0%
Test B disease control rating (Puccinia recondita): 28%
Test E disease control rating (Botrytis cinerea): 0%
Test A disease control rating [1]: 77%

C[C@H](COc1cccc(Cl)c1)NC(=O)C(C#N)C(C)(C)C (single isomer, unassigned) [6e]
Test C disease control rating (Pyricularia oryzae): 100%
Test D disease control rating (Phytophthora infestans): 96%
Test B disease control rating (Puccinia recondita): 0%
Test E disease control rating (Botrytis cinerea): 70%
Test A disease control rating [1]: 0%

CC(COc1ccc(Cl)cc1)NC(=O)C(C#N)C(C)(C)C (single isomer, unassigned) [7a]
Test C disease control rating (Pyricularia oryzae): 91%
Test D disease control rating (Phytophthora infestans): 89%
Test B disease control rating (Puccinia recondita): 85%
Test E disease control rating (Botrytis cinerea): 0%
Test A disease control rating [1]: 77%

CC(COc1ccc(Cl)cc1)NC(=O)C(C#N)C(C)(C)C (single isomer, unassigned) [7b]
Test C disease control rating (Pyricularia oryzae): 74%
Test D disease control rating (Phytophthora infestans): 89%
Test B disease control rating (Puccinia recondita): 0%
Test E disease control rating (Botrytis cinerea): 47%
Test A disease control rating [1]: 77%

C[C@H](COc1ccc(Cl)cc1)NC(=O)C(C#N)C(C)(C)C (single isomer, unassigned) [7c]
Test C disease control rating (Pyricularia oryzae): 86%
Test D disease control rating (Phytophthora infestans): 9%
Test B disease control rating (Puccinia recondita): 0%
Test E disease control rating (Botrytis cinerea): 45%
Test A disease control rating [1]: 0%

C[C@H](COc1ccc(Cl)cc1)NC(=O)C(C#N)C(C)(C)C (single isomer, unassigned) [7d]
Test C disease control rating (Pyricularia oryzae): 99%
Test D disease control rating (Phytophthora infestans): 0%
Test B disease control rating (Puccinia recondita): 68%
Test E disease control rating (Botrytis cinerea): 6%
Test A disease control rating [1]: 62%

C[C@H](COc1ccccc1Br)NC(=O)C(C#N)C(C)(C)C (single isomer, unassigned) [8b]
Test C disease control rating (Pyricularia oryzae): 100%
Test D disease control rating (Phytophthora infestans): 89%
Test B disease control rating (Puccinia recondita): 0%
Test E disease control rating (Botrytis cinerea): 47%
Test A disease control rating [1]: 37%

C[C@H](COc1ccccc1Br)NC(=O)C(C#N)C(C)(C)C (single isomer, unassigned) [8c]
Test C disease control rating (Pyricularia oryzae): 100%
Test D disease control rating (Phytophthora infestans): 0%
Test B disease control rating (Puccinia recondita): 0%
Test E disease control rating (Botrytis cinerea): 0%
Test A disease control rating [1]: 0%

C[C@H](COc1cccc(Br)c1)NC(=O)C(C#N)C(C)(C)C (single isomer, unassigned) [9b]
Test C disease control rating (Pyricularia oryzae): 99%
Test D disease control rating (Phytophthora infestans): 28%
Test B disease control rating (Puccinia recondita): 68%
Test E disease control rating (Botrytis cinerea): 0%
Test A disease control rating [1]: 62%

C[C@H](COc1cccc(Br)c1)NC(=O)C(C#N)C(C)(C)C (single isomer, unassigned) [9c]
Test C disease control rating (Pyricularia oryzae): 100%
Test D disease control rating (Phytophthora infestans): 51%
Test B disease control rating (Puccinia recondita): 28%
Test E disease control rating (Botrytis cinerea): 0%
Test A disease control rating [1]: 62%

CC(COc1ccc(Br)cc1)NC(=O)C(C#N)C(C)(C)C (single isomer, unassigned) [10a]
Test C disease control rating (Pyricularia oryzae): 86%
Test D disease control rating (Phytophthora infestans): 23%
Test B disease control rating (Puccinia recondita): 27%
Test E disease control rating (Botrytis cinerea): 0%
Test A disease control rating [1]: 0%

CC(COc1ccc(Br)cc1)NC(=O)C(C#N)C(C)(C)C (single isomer, unassigned) [10b]
Test C disease control rating (Pyricularia oryzae): 86%
Test D disease control rating (Phytophthora infestans): 95%
Test B disease control rating (Puccinia recondita): 67%
Test E disease control rating (Botrytis cinerea): 0%
Test A disease control rating [1]: 62%

C[C@H](COc1ccc(Br)cc1)NC(=O)C(C#N)C(C)(C)C (single isomer, unassigned) [10c]
Test C disease control rating (Pyricularia oryzae): 53%
Test D disease control rating (Phytophthora infestans): 35%
Test B disease control rating (Puccinia recondita): 86%
Test E disease control rating (Botrytis cinerea): 0%
Test A disease control rating [1]: 0%

C[C@H](COc1ccc(Br)cc1)NC(=O)C(C#N)C(C)(C)C (single isomer, unassigned) [10d]
Test C disease control rating (Pyricularia oryzae): 74%
Test D disease control rating (Phytophthora infestans): 35%
Test B disease control rating (Puccinia recondita): 0%
Test E disease control rating (Botrytis cinerea): 45%
Test A disease control rating [1]: 77%

C[C@H](COc1cccc(I)c1)NC(=O)C(C#N)C(C)(C)C (single isomer, unassigned) [12a]
Test C disease control rating (Pyricularia oryzae): 91%
Test D disease control rating (Phytophthora infestans): 0%
Test B disease control rating (Puccinia recondita): 68%
Test E disease control rating (Botrytis cinerea): 0%
Test A disease control rating [1]: 86%

C[C@H](COc1cccc(I)c1)NC(=O)C(C#N)C(C)(C)C (single isomer, unassigned) [12b]
Test C disease control rating (Pyricularia oryzae): 94%
Test D disease control rating (Phytophthora infestans): 68%
Test B disease control rating (Puccinia recondita): 0%
Test E disease control rating (Botrytis cinerea): 0%
Test A disease control rating [1]: 77%

C[C@H](COc1ccccc1C#N)NC(=O)C(C#N)C(C)(C)C (single isomer, unassigned) [13b]
Test C disease control rating (Pyricularia oryzae): 86%
Test D disease control rating (Phytophthora infestans): 4%
Test B disease control rating (Puccinia recondita): 0%
Test E disease control rating (Botrytis cinerea): 83%
Test A disease control rating [1]: 0%

Cc1ccc(OC[C@@H](C)NC(=O)C(C#N)C(C)(C)C)c(Cl)c1 (single isomer, unassigned) [14a]
Test C disease control rating (Pyricularia oryzae): 94%
Test D disease control rating (Phytophthora infestans): 45%
Test B disease control rating (Puccinia recondita): 0%
Test E disease control rating (Botrytis cinerea): 58%
Test A disease control rating [1]: 0%

Cc1ccc(OC[C@@H](C)NC(=O)C(C#N)C(C)(C)C)c(Cl)c1 (single isomer, unassigned) [14b]
Test C disease control rating (Pyricularia oryzae): 86%
Test D disease control rating (Phytophthora infestans): 23%
Test B disease control rating (Puccinia recondita): 0%
Test E disease control rating (Botrytis cinerea): 0%
Test A disease control rating [1]: 61%

Cc1ccc(Cl)c(OC[C@@H](C)NC(=O)C(C#N)C(C)(C)C)c1 (single isomer, unassigned) [15a]
Test C disease control rating (Pyricularia oryzae): 97%
Test D disease control rating (Phytophthora infestans): 92%
Test B disease control rating (Puccinia recondita): 28%
Test E disease control rating (Botrytis cinerea): 86%
Test A disease control rating [1]: 0%

Cc1ccc(Cl)c(OC[C@@H](C)NC(=O)C(C#N)C(C)(C)C)c1 (single isomer, unassigned) [15b]
Test C disease control rating (Pyricularia oryzae): 97%
Test D disease control rating (Phytophthora infestans): 45%
Test B disease control rating (Puccinia recondita): 0%
Test E disease control rating (Botrytis cinerea): 0%
Test A disease control rating [1]: 0%

C[C@H](COc1cccc(C(F)(F)F)c1)NC(=O)C(C#N)C(C)(C)C (single isomer, unassigned) [18a]
Test C disease control rating (Pyricularia oryzae): 91%
Test D disease control rating (Phytophthora infestans): 0%
Test B disease control rating (Puccinia recondita): 0%
Test E disease control rating (Botrytis cinerea): 0%
Test A disease control rating [1]: 0%
